Target: T1, GV sPLA2 (Homo sapiens, UniProt P39877)
T1 sequence (P39877 21-138): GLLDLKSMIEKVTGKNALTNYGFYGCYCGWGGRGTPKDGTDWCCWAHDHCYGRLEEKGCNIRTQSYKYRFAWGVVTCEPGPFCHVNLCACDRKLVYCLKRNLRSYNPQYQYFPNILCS
Assay: mixed-micelle radiolabelled phospholipid
Assay type: biochemical

GV sPLA2: 0.003 ± 0.0004 mole fraction (XI(50))
Compound: CCCC[C@H](CCC(=O)O)NC(=O)CCCCCCc1ccccc1 [compound 42, (R)-4-(7-Phenylheptanamido)octanoic acid]

Reference: publication PMC2796434 (Bioorganic & medicinal chemistry, 2008)
